What was measured:
Test in all cases: relative viability (nuclei count vs DMSO), 5 days (fraction); higher = more cells survive
COR-L 105 = tested on: COR-L 105
Outline: (§1)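 Lung cancer cell lines, seeded in 1536-well plates, were treated the following day by pin tool with a single drug or with five library-drug doses (not always all listed) in √10 steps on top of a fixed anchor-drug dose. Cells were fixed and nuclei stained in one step after 5 days, and nuclei were counted. Relative viability is the nuclei count for treated wells divided by that for vehicle wells, reported as medians of duplicate plates.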

ChaGo-K-1 = tested on: ChaGo-K-1
Outline: as §1

201T = tested on: 201T
Outline: as §1

NCI-H322M = tested on: NCI-H322M
Outline: as §1

NCI-H2126 = tested on: NCI-H2126
Outline: as §1

NCI-H2347 = tested on: NCI-H2347
Outline: as §1

EPLC-272H = tested on: EPLC-272H
Outline: as §1

LCLC-97TM1 = tested on: LCLC-97TM1
Outline: as §1

PC-14 = tested on: PC-14
Outline: as §1

RERF-LC-KJ = tested on: RERF-LC-KJ
Outline: as §1

HCC-78 = tested on: HCC-78
Outline: as §1

NCI-H647 = tested on: NCI-H647
Outline: as §1

NCI-H520 = tested on: NCI-H520
Outline: as §1

NCI-H1666 = tested on: NCI-H1666
Outline: as §1

NCI-H23 = tested on: NCI-H23
Outline: as §1

NCI-H2087 = tested on: NCI-H2087
Outline: as §1

LC-2-ad = tested on: LC-2-ad
Outline: as §1

HCC-827 = tested on: HCC-827
Outline: as §1

NCI-H1915 = tested on: NCI-H1915
Outline: as §1

NCI-H661 = tested on: NCI-H661
Outline: as §1

NCI-H2405 = tested on: NCI-H2405
Outline: as §1

NCI-H650 = tested on: NCI-H650
Outline: as §1

H3255 = tested on: H3255
Outline: as §1

Work on `NC(=O)Nc1cc(-c2cccc(F)c2)sc1C(=O)N[C@H]1CCCNC1` [AZD7762] + CC(=O)Nc1cccc(-n2c(=O)n(C3CC3)c(=O)c3c(Nc4ccc(I)cc4F)n(C)c(=O)c(C)c32)c1 [Trametinib] (partner 0.02 µM) yielded a relative viability (COR-L 105; first compound 0.01 µM) of 0.435, a relative viability (COR-L 105; first compound 0.03162 µM) of 0.462 and a relative viability (COR-L 105; first compound 0.1 µM) of 0.416. For the same compound, the relative viability (COR-L 105; first compound 0.3162 µM) was 0.444, the relative viability (COR-L 105; first compound 1 µM) was 0.43 and the relative viability (ChaGo-K-1; first compound 0.01 µM) was 0.871. It also gave a relative viability (ChaGo-K-1; first compound 0.03162 µM) of 0.914, a relative viability (ChaGo-K-1; first compound 0.1 µM) of 0.93 and a relative viability (ChaGo-K-1; first compound 0.3162 µM) of 0.9. It also gave a relative viability (ChaGo-K-1; first compound 1 µM) of 0.958, a relative viability (201T; first compound 0.01 µM) of 0.718 and a relative viability (201T; first compound 0.03162 µM) of 0.749. For the same compound, the relative viability (201T; first compound 0.1 µM) was 0.763, the relative viability (201T; first compound 0.3162 µM) was 0.724 and the relative viability (201T; first compound 1 µM) was 0.852. The relative viability (NCI-H322M; first compound 0.01 µM) was 0.548, the relative viability (NCI-H322M; first compound 0.03162 µM) was 0.583 and the relative viability (NCI-H322M; first compound 0.1 µM) was 0.526. It also gave a relative viability (NCI-H322M; first compound 0.3162 µM) of 0.58, a relative viability (NCI-H322M; first compound 1 µM) of 0.369 and a relative viability (NCI-H2126; first compound 0.01 µM) of 0.547. It also gave a relative viability (NCI-H2126; first compound 0.03162 µM) of 0.629, a relative viability (NCI-H2126; first compound 0.1 µM) of 0.529 and a relative viability (NCI-H2126; first compound 0.3162 µM) of 0.639. The relative viability (NCI-H2126; first compound 1 µM) was 0.675, the relative viability (NCI-H2347; first compound 0.01 µM) was 0.313 and the relative viability (NCI-H2347; first compound 0.03162 µM) was 0.279. The relative viability (NCI-H2347; first compound 0.1 µM) was 0.281, the relative viability (NCI-H2347; first compound 0.3162 µM) was 0.287 and the relative viability (NCI-H2347; first compound 1 µM) was 0.305. The relative viability (EPLC-272H; first compound 0.01 µM) was 0.28, the relative viability (EPLC-272H; first compound 0.03162 µM) was 0.297 and the relative viability (EPLC-272H; first compound 0.1 µM) was 0.277. It also gave a relative viability (EPLC-272H; first compound 0.3162 µM) of 0.293, a relative viability (EPLC-272H; first compound 1 µM) of 0.227 and a relative viability (LCLC-97TM1; first compound 0.01 µM) of 0.199. It also gave a relative viability (LCLC-97TM1; first compound 0.03162 µM) of 0.214, a relative viability (LCLC-97TM1; first compound 0.1 µM) of 0.185 and a relative viability (LCLC-97TM1; first compound 0.3162 µM) of 0.202. For the same compound, the relative viability (LCLC-97TM1; first compound 1 µM) was 0.182, the relative viability (PC-14; first compound 0.01 µM) was 0.802 and the relative viability (PC-14; first compound 0.03162 µM) was 0.832. The relative viability (PC-14; first compound 0.1 µM) was 0.659, the relative viability (PC-14; first compound 0.3162 µM) was 0.236 and the relative viability (PC-14; first compound 1 µM) was 0.0675. The relative viability (RERF-LC-KJ; first compound 0.01 µM) was 0.878, the relative viability (RERF-LC-KJ; first compound 0.03162 µM) was 0.888 and the relative viability (RERF-LC-KJ; first compound 0.1 µM) was 0.996. For the same compound, the relative viability (RERF-LC-KJ; first compound 0.3162 µM) was 0.874, the relative viability (RERF-LC-KJ; first compound 1 µM) was 0.693 and the relative viability (HCC-78; first compound 0.01 µM) was 0.937. The relative viability (HCC-78; first compound 0.03162 µM) was 0.864, the relative viability (HCC-78; first compound 0.1 µM) was 0.828 and the relative viability (HCC-78; first compound 0.3162 µM) was 0.969. It also gave a relative viability (HCC-78; first compound 1 µM) of 0.416, a relative viability (NCI-H647; first compound 0.01 µM) of 0.533 and a relative viability (NCI-H647; first compound 0.03162 µM) of 0.579. The relative viability (NCI-H647; first compound 0.1 µM) was 0.456, the relative viability (NCI-H647; first compound 0.3162 µM) was 0.384 and the relative viability (NCI-H647; first compound 1 µM) was 0.16. For the same compound, the relative viability (NCI-H520; first compound 0.01 µM) was 0.713, the relative viability (NCI-H520; first compound 0.03162 µM) was 0.702 and the relative viability (NCI-H520; first compound 0.1 µM) was 0.653. It also gave a relative viability (NCI-H520; first compound 0.3162 µM) of 0.484, a relative viability (NCI-H520; first compound 1 µM) of 0.194 and a relative viability (NCI-H1666; first compound 0.01 µM) of 0.894. For the same compound, the relative viability (NCI-H1666; first compound 0.03162 µM) was 0.898, the relative viability (NCI-H1666; first compound 0.1 µM) was 0.927 and the relative viability (NCI-H1666; first compound 0.3162 µM) was 0.891. It also gave a relative viability (NCI-H1666; first compound 1 µM) of 0.901, a relative viability (NCI-H23; first compound 0.01 µM) of 0.477 and a relative viability (NCI-H23; first compound 0.03162 µM) of 0.36. It also gave a relative viability (NCI-H23; first compound 0.1 µM) of 0.421, a relative viability (NCI-H23; first compound 0.3162 µM) of 0.392 and a relative viability (NCI-H23; first compound 1 µM) of 0.201. The relative viability (NCI-H2087; first compound 0.01 µM) was 0.211, the relative viability (NCI-H2087; first compound 0.03162 µM) was 0.212 and the relative viability (NCI-H2087; first compound 0.1 µM) was 0.248. For the same compound, the relative viability (NCI-H2087; first compound 0.3162 µM) was 0.333, the relative viability (NCI-H2087; first compound 1 µM) was 0.254 and the relative viability (LC-2-ad; first compound 0.01 µM) was 0.914. For the same compound, the relative viability (LC-2-ad; first compound 0.03162 µM) was 0.9, the relative viability (LC-2-ad; first compound 0.1 µM) was 0.906 and the relative viability (LC-2-ad; first compound 0.3162 µM) was 0.647. It also gave a relative viability (LC-2-ad; first compound 1 µM) of 0.544, a relative viability (HCC-827; first compound 0.01 µM) of 0.577 and a relative viability (HCC-827; first compound 0.03162 µM) of 0.534. It also gave a relative viability (HCC-827; first compound 0.1 µM) of 0.561, a relative viability (HCC-827; first compound 0.3162 µM) of 0.575 and a relative viability (HCC-827; first compound 1 µM) of 0.376. It also gave a relative viability (NCI-H1915; first compound 0.01 µM) of 0.342, a relative viability (NCI-H1915; first compound 0.03162 µM) of 0.332 and a relative viability (NCI-H1915; first compound 0.1 µM) of 0.305. The relative viability (NCI-H1915; first compound 0.3162 µM) was 0.362, the relative viability (NCI-H1915; first compound 1 µM) was 0.271 and the relative viability (NCI-H661; first compound 0.01 µM) was 0.662. For the same compound, the relative viability (NCI-H661; first compound 0.03162 µM) was 0.569, the relative viability (NCI-H661; first compound 0.1 µM) was 0.577 and the relative viability (NCI-H661; first compound 0.3162 µM) was 0.599. It also gave a relative viability (NCI-H661; first compound 1 µM) of 0.369, a relative viability (NCI-H2405; first compound 0.01 µM) of 0.744 and a relative viability (NCI-H2405; first compound 0.03162 µM) of 0.57. For the same compound, the relative viability (NCI-H2405; first compound 0.1 µM) was 0.557, the relative viability (NCI-H2405; first compound 0.3162 µM) was 0.631 and the relative viability (NCI-H2405; first compound 1 µM) was 0.347. For the same compound, the relative viability (NCI-H650; first compound 0.01 µM) was 0.984, the relative viability (NCI-H650; first compound 0.03162 µM) was 1.08 and the relative viability (NCI-H650; first compound 0.1 µM) was 1.05. The relative viability (NCI-H650; first compound 0.3162 µM) was 1.04, the relative viability (NCI-H650; first compound 1 µM) was 0.756 and the relative viability (H3255; first compound 0.01 µM) was 0.71. For the same compound, the relative viability (H3255; first compound 0.03162 µM) was 0.72, the relative viability (H3255; first compound 0.1 µM) was 0.698 and the relative viability (H3255; first compound 0.3162 µM) was 0.618. For the same compound, the relative viability (H3255; first compound 1 µM) was 0.682.

— the supplement of paper PMC10307832
